# Values of other authors in patent US8091801B2, “Generation of therapeutic microfoam” (BTG International Limited, priority 1999, dated 2012).
# Conditions: in water at STP
row,Mole Fraction Solubility,Compound
1,2.3 10^−5,O=O [Oxygen]
2,43.7 10^−5,[N-]=[N+]=O [Nitrous oxide]

row,Compound,Mole Fraction Solubility
1,[He] [Helium],0.7 10^−5
